Counter-ions that a name gives are not always drawn. Like-named read-outs stand apart in the source and are kept apart here.
Legend:
[1] = target: T1, MMP-1 (Homo sapiens, UniProt P03956); assay: MMP-1 inhibition (thiopeptide or fluorescent peptide substrate); format: biochemical
T1 sequence (P03956 100-469): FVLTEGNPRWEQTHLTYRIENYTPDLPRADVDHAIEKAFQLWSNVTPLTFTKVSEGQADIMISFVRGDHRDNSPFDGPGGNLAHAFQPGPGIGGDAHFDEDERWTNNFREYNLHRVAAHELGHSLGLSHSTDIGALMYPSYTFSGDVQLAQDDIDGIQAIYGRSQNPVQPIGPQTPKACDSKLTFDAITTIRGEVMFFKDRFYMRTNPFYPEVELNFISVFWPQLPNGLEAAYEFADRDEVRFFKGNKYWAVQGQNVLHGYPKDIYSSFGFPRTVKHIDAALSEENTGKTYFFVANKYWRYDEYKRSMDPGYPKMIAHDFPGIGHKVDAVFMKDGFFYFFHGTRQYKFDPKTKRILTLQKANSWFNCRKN
Protocol: (§1) The enzyme activity is measured by the rate of the color increase. The thiopeptide substrate is made up fresh as a 20 mM stock in 100% DMSO and the DTNB is dissolved in 100% DMSO as a 100 mM stock and stored in the dark at room temperature. Both the substrate and DTNB are diluted together to 1 mM with substrate buffer (50 mM HEPES pH 7.5, 5 mM CaCl2) before use. The stock of enzyme is diluted with buffer (50 mM HEPES, pH 7.5, 5 mM CaCl2, 0.02% Brij) to the desired final concentration.
(§2) Alternatively, a fluorescent peptide substrate is used. In this test procedure, the peptide substrate contains a fluorescent group and a quenching group. Upon cleavage of the substrate by an MMP, the fluorescence that is generated is quantitated on the fluorescence plate reader. The assay is run in HCBC assay buffer (50mM HEPES, pH 7.0, 5 mM Ca^+2, 0.02% Brij, 0.5% Cysteine), with human recombinant MMP-1, MMP-9, or MMP-13. The substrate is dissolved in methanol and stored frozen in 1 mM aliquots. For the assay, substrate and enzymes are diluted in HCBC buffer to the desired concentrations. Compounds are added to the 96 well plate containing enzyme and the reaction is started by the addition of substrate.
(§3) For either the thiopeptide or fluorescent peptide test procedures, the slope of the line is calculated and represents the reaction rate. The linearity of the reaction rate is confirmed (r^2 >0.85). The mean (x±sem) of the control rate is calculated and compared for statistical significance (p<0.05) with drug-treated rates using Dunnett's multiple comparison test.

[2] = target: MMP-9 (Homo sapiens, UniProt P14780); assay: MMP-9 inhibition (thiopeptide or fluorescent peptide substrate); format: biochemical
Sequence of MMP-9 (P14780 107-707 limits assumed): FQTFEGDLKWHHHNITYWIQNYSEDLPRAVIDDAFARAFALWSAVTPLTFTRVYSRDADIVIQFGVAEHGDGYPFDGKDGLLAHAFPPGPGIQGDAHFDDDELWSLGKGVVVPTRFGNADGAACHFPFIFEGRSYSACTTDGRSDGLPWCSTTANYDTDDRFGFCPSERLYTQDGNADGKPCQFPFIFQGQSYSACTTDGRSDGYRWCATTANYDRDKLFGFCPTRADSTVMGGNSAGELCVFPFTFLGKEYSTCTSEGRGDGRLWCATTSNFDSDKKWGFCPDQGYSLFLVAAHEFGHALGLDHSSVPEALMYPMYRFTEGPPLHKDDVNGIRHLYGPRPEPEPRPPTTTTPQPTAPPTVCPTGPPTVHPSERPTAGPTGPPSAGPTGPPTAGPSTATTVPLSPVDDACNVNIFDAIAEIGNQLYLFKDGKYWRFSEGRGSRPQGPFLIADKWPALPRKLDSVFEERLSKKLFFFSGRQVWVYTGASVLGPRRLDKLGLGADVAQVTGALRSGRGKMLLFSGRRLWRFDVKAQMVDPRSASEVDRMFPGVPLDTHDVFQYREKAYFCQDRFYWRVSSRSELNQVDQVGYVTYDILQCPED
Protocol: as §1, §2, §3

[3] = target: MMP-13 (Homo sapiens, UniProt P45452); assay: MMP-13 inhibition (thiopeptide or fluorescent peptide substrate); format: biochemical
Protocol: as §1, §2, §3

[4] = target: TACE (Homo sapiens, UniProt P78536); assay: TACE inhibition (fluorescent peptidyl substrate); format: biochemical; details: read-out: TACE IC50
Sequence of TACE (P78536 215-824): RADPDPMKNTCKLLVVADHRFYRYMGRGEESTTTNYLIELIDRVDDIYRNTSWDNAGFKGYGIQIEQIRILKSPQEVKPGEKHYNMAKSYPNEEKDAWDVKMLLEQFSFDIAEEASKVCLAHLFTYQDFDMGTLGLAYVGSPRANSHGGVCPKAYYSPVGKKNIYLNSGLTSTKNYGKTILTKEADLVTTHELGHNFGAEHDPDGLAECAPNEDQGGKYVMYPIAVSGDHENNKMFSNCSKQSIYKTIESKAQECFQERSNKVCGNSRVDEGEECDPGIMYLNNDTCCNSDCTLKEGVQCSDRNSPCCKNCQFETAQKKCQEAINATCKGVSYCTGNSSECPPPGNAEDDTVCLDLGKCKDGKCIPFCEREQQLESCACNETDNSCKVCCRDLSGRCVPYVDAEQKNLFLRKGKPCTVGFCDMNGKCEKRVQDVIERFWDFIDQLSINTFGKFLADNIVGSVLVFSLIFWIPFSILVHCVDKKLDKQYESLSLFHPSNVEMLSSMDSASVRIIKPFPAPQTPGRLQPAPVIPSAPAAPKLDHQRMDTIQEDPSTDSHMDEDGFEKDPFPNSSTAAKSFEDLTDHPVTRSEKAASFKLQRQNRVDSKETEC

[5] = test system: THP-1 cells; assay: THP-1 Soluble Protein Assay (LPS-stimulated; ELISA of TNF-a, TNF-R p75/80, TNF-R p55/60, IL-8); format: cell-based, human; details: for inhibition at 3 µM: Homo sapiens
Protocol: Each vial of cells are cultured for about two weeks prior to being used for an assay and then are used for only 4 to 6 weeks to screen compounds.
Plates are placed into an incubator set at 5% CO2 and at 37° C. After 4 hours of incubation, 300 ml/well of tissue culture supernatant (TCS) is removed for use in an TNF-a ELISA.
Percent change in each soluble protein evaluated from the "vehicle positive control" was calculated for each compound concentration with the following formula: % Change =(pg/ml (compound) - pg/ml (veh pos control))/(pg/ml (veh pos control) - pg/ml (veh neg control))x 100 [formula]
For the soluble protein (TNF-a, p75/80, p55/60, IL-8) studies under stimulated conditions, the mean pg/ml of duplicate wells were determined and the results expressed as percent change from "vehicle positive control".

[6] = THP-1, read-out: THP % inhibition @ 3 µM, 3 µM

Row | Molecule | IC50 [1] [nM] | IC50 [2] [nM] | IC50 [3] [nM] | IC50 [4] [nM] | inhibition at 3 µM [5, 6] [%] | IC50 ([4]; Tables 11-14) [nM] | THP % inhibition @ 3 µM [5] [%] | inhibition at 3 µM ([5]; THP-1, 3 µM, read-out: THP % Inhibition @ 3µM) [%] | inhibition at 3 µM ([5]; THP-1, read-out: THP % inhibition @ 3 µM) [%]
1 | CC#CCOc1ccc(S(=O)(=O)N(C)C(C(=O)NO)C(C)(C)SCCN2CCCC2C(=O)OC)cc1 (stereo not drawn) [Example 145] | 18 | 7.1 | 2.5 | 109 | 83 |  |  |  | 
2 | CC#CCOc1ccc(S(=O)(=O)N2CC(CNC(=O)OC(C)(C)C)SC(C)(C)C2C(=O)NO)cc1 [Example 274, tert-Butyl{(2S,5S)-4-{[4-(2-butynyloxy)phenyl]sulfonyl}-5-[(hydroxyamino)carbonyl]-6,6-dimethylthiomorpholinyl}methylcarbamate] |  | 107 |  |  |  | 59 | 84 |  | 
3 | CC#CCOc1ccc(S(=O)(=O)N(C)C(C(=O)NO)C(C)(C)SCCCN(CC)CC)cc1 (stereo not drawn) [Example 148] | 25 | 4.8 | 5.2 | 88 | 87 |  |  |  | 
4 | CC#CCSc1ccc(S(=O)(=O)N(C)CC(=O)NO)cc1 [Example 134, 2-[(4-But-2-ynylthiophenylsulfonyl)methylamino]-N-hydroxyacetamide] | 4950 | 111 | 84 |  | 14 |  |  |  | 
5 | C#CCNc1ccc(S(=O)(=O)N(C)CC(=O)NO)cc1 [Example 133, N-Hydroxy-2-(methyl{[4-(prop-2-ynylamino)phenyl]sulfonyl}amino)acetamide] |  | 1510 | 751 | 120 | 8 |  |  |  | 
6 | CC#CCOc1ccc(S(=O)(=O)N(CC#CCN(CC)CC)C(C(=O)NO)C(C)C)cc1 (stereo not drawn) [Example 126, 2-{{[4-(2-Butynyloxy)phenyl]sulfonyl}[4-(diethylamino)-2-butynyl]amino}-N-hydroxy-3-methylbutanamide] | 212 | 149 | 36 | 73 | 93 |  |  |  | 
7 | CC#CCOc1ccc(S(=O)(=O)N(C)[C@@H](C)C(=O)NO)cc1 [Example 107, (2S)-2-[(4-But-2-ynyloxy-benzenesulfonyl)-methyl-amino]-N-hydroxy-propionamide] | 330 | 68 |  | 4.5 |  |  |  |  | 
8 | 2-[(4-But-2-ynyloxy-benenesulfonyl)-methyl-amino]-N-hydroxy-3-methyl-3-ethylsulfanyl-butyramide [Example 150] | 25 | 20 | 9.3 | 51 |  |  | 86 |  | 
9 | CC#CCOc1ccc(S(=O)(=O)N2C[C@H](CN)SC(C)(C)[C@@H]2C(=O)NO)cc1 [Example 276, (3S,6S)-Cis-6-(aminomethyl)-4-{[4-(2-butynyloxy)phenyl]sulfonyl}-N-hydroxy-2,2-dimethyl-3-thiomorpholinecarboxamide hydrochloride] |  | 64 |  |  |  |  |  | 94 | 
10 | CC#CCOc1ccc(S(=O)(=O)N(C)C(CSCc2ccccc2)C(=O)NO)cc1 (stereo not drawn) [Example 156, 3-(Benzylthio) -2-[[[4-(2-butynyloxy)phenyl]sulfonyl]methylamino] -N-hydroxypropanamide] |  | 11 | 4.5 | 4.8 | 75 |  |  |  | 
11 | CN(CC(=O)NO)S(=O)(=O)c1ccc(OCC#Cc2ccc(Cl)cc2)cc1 [Example 132, 2-[[(4-{[3-(4-Chlorophenyl)-2-propynyl]oxy}phenyl)sulfonyl](methyl)amino]-N-hydroxyacetamide] | > 10000 | 2370 | 1120 | 1100 | 27 |  |  |  | 
12 | CC#CCOc1ccc(S(=O)(=O)N(C)C(CSCc2cccnc2)C(=O)NO)cc1 (stereo not drawn) [Example 155, 2-[(4-But-2-ynyloxy-benenesulfonyl)-methyl-amino]-N-hydroxy-3-(pyridin-3-ylmethylsulfanyl)-butyramide] |  | 14 |  |  | 93 |  |  |  | 
13 | CC#CCOc1ccc(S(=O)(=O)N(CC(=O)NO)Cc2cccnc2)cc1 [Example 23, 2-[(4-But-2-ynyloxy-benzenesulfonyl)-pyridin-3-ylmethyl-amino]-N-hydroxy-acetamide hydrochloride] | 1160 | 40 | 20 |  |  |  |  |  | 63

Source: patent EP1144368B1, “ACETYLENIC ALPHA-AMINO ACID-BASED SULFONAMIDE HYDROXAMIC ACID TACE INHIBITORS” (priority 1999, dated 2000)
